Assay results: patent EP2284541A1, “Fluorescence-based imaging and analysis of cells and cellular components using lipophilic dyes with improved specificity, spectral property and photostability” (Max-Planck-Gesellschaft zur Förderung der Wissenschaften …, priority 2009, dated 2011)
Values joined by “and” are separate entries in the source; they are usually repeats but may differ in a detail not shown here. Equal values may be shown once. Read-outs that look alike come from different tables or passages of the source.

Assays:
[1] = Comparative lipophilicity: log P by direct solvent partitioning, measured in the fluorometer; format: physicochemical; conditions: for log P: average, dye 0.1 µg/ml; for Δlog P: LD540 versus Bodipy 493/503
Experimental: Dyes were dissolved in octanol-saturated water or oil-saturated methanol at a concentration of 0.1 μg/ml, measured in the fluorometer and shaken with an equal volume of water-saturated octanol or methanol-saturated oil for 20 min. Phases were separated by centrifugation. For octanol/water coefficients, the concentration of dye in the water phase was measured and used for calculations of log P. For the oil/methanol system, 10 μl samples of both phases were taken, diluted into 990 μl of isopropanol and measured in the fluorometer. The ratio was used for calculation of log p. Values obtained in the octanol/water system indicated higher lipophilicity of LD540. Since log P values larger 3 obtained by direct solvent partitioning are prone to errors, we also measured in the immiscible pair sunflower oil/methanol, where log p values for lipophilic substances are much smaller and less error prone. […] All values are average +/- […] values were determined by Students t-test.

[2] = Photobleaching of dyes in sunflower oil under constant illumination in a photometer cuvette; format: physicochemical; conditions: 0.1 µg/ml in sunflower oil; constant irradiation at absorption maximum
Experimental: In a first experiment, the different dyes to be compared (LD540, Nile Red and Bodipy 493/503) were dissolved at 0.1 µg/ml in sunflower oil (which represents the cellular environment of the dyes) and constantly irradiated in a photometer cuvette at their respective absorption maximum. Excitation energy was equal for all three dyes. Every 15 seconds, fluorescence emission was recorded. […] The slope of the curves are directly proportional to the respective rate of photobleaching. Under these conditions, LD540 bleaches 3-times slower than Nile Red and 15-times slower than Bodipy 493/503.

[3] = Spectral characteristics (excitation and emission maxima) in various solvents and in stained cells, spectrofluorometer; format: physicochemical; conditions: Ethanol, 2 x 10^-4 M
[4] = reported in U.S. Patent No. 5,446,157; cited from earlier work
[5] = Spectral characteristics (excitation and emission maxima) in various solvents and in stained cells, spectrofluorometer; format: physicochemical
Experimental: Spectra were measured on a Jobin Yvon Fluoromax3 spectrofluorometer at 3 x 10^-7 M. Differentiated 3T3-L1 cells were stained with 0.2 µg/ml LD540 in DMEM + 10% FCS for 30 min, followed by three washes. Cells were trypsinized, suspended at 100.000 cells/ml in PBS and measured in a fluorescence cuvette.
^#Note that the excitation maximum fits to the one reported in U.S. Patent No. 5,446,157, while the emission maximum in said reference was indicated to be 560 nm.

[6] = Oil/methanol (sunflower oil), n = 3
[7] = 3T3-L1 cells stained with 0.2 µg/ml LD540, suspended in PBS

## CC1=CC(C)=[N+]2C1=C(C)c1c(C)cc(C)n1[B-]2(F)F [Bodipy 493/503, reference compound]
[1]; Octanol/water, n = 7
  log P: 3.50
[1]; [6]
  log P: 0.31

## CC1=C2C=C3CCCCC3=[N+]2[B-](F)(F)n2c1cc1c2CCCC1 [LD540]
[2]
  bleaching, times slower than Nile Red: 3
[3]; 1 mm cuvette
  emission maximum: 550 nm
[3]; 4 mm cuvette
  emission maximum: 557 nm
[4]
  emission maximum: 560 nm
  excitation maximum: 535 nm
[1]; Octanol/water
  Δlog P: 0.88
[1]; Octanol/water, n = 7
  log P: 4.38
[1]; [6]
  log P: 0.75
[1]; Oil/methanol
  Δlog P: 0.44
[5]; [7]
  Λ max exc: 540 nm and 540.2 nm
  λ max em: 545 nm and 545.0 nm
[5]; Ethanol, 3 x 10^-7 M
  Λ max exc: 536.0 nm
  λ max em: 542.5 nm
[5]; Hexane, 3 x 10^-7 M
  Λ max exc: 539.7 nm
  λ max em: 542.2 nm
[5]; Sunflower oil, 3 x 10^-7 M
  Λ max exc: 540.2 nm
  λ max em: 545.2 nm
[5]; Water, 3 x 10^-7 M
  Λ max exc: 534.8 nm
  λ max em: 542.4 nm
